From US6858638B2, “Substituted indazoles, compositions containing them, method of production and use” (Aventis Pharma S.A., priority 2002, dated 2005)

Legend:
Type in all cases: biochemical
Aurora2 kinase = molecular target: T1, Aurora2 kinase (Homo sapiens, UniProt O14965); assay: Aurora2 kinase radioactivity scintillation assay using nickel chelate (NuMA substrate); details: 10 μM; for inhibition at 10 µM: read-out: Aurora2 % inhib at 10 μM
T1 construct: A complete recombinant Aurora2 enzyme; His tag (N); made in house; host or cells: E. coli
T1 sequence (O14965 1-403): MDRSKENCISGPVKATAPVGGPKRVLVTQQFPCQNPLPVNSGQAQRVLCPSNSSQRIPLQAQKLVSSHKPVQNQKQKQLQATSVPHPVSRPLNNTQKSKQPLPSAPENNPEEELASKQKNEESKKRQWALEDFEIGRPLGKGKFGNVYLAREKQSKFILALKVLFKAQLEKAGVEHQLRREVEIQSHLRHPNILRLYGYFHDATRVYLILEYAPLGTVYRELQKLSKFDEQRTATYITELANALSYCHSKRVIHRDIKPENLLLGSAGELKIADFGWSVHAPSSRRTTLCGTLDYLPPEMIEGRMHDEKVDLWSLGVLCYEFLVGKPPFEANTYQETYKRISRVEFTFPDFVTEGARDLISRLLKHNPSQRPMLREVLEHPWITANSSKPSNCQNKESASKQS
How it was run: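 His-tagged full-length Aurora2 (0.02 μM, E. coli) phosphorylating His-tagged NuMA C-terminal fragment (0.5 μM) with 1 μM ATP plus [33P]-ATP, 30 min at 37 °C, pH 7.5 Tris buffer with MgCl2. Nickel-chelate scintillation read; percent inhibition versus no-compound control.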

[1] = molecular target: T2, human IGF1R cytoplasmic domain (Homo sapiens, UniProt P08069); assay: IGF1R autophosphorylation inhibition, time resolved fluorescence (HTRF) assay; details: 10 μM; read-out: IGF1R % inhib at 10 μM
T2 construct: The human IGF1R cytoplasmic domain was cloned; made in house; host or cells: SF21 insect cells (baculovirus)
How it was run: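 GST-tagged human IGF1R cytoplasmic domain from SF21 cells incubated with compound in 50 mM Hepes pH 7.5, 5 mM MnCl2, 50 mM NaCl, […] ATP. Autophosphorylation detected by HTRF (Eu-K anti-phosphotyrosine, XL665 anti-GST) after EDTA/KF stop; percentage inhibition versus no-compound control.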

human KDR enzyme = molecular target: T3, human KDR enzyme (Homo sapiens, UniProt P35968); assay: KDR substrate (PLCγ) phosphorylation, scintillation assay; details: 10 μM; read-out: KDR % inhib at 10 μM
T3 construct: The cytoplasmic domain of the human KDR enzyme; GST; made in house; host or cells: SF21 insect cells (baculovirus)
How it was run: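 GST-fused human KDR cytoplasmic domain from SF21 cells (about 60% pure, 100 ng) phosphorylated 2 μg of GST-PLCγ SH2-SH3 fragment. The trigger solution held γ33P-ATP with 2 μM cold ATP, in MOPS buffer pH 7.2 with Mg2+, Mn2+, vanadate and NaF. Reactions ran 1 h at 37 °C, were stopped with EDTA and counted by scintillation; results are % inhibition versus the no-compound control.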

T3 sequence (P35968 786-1356 limits assumed): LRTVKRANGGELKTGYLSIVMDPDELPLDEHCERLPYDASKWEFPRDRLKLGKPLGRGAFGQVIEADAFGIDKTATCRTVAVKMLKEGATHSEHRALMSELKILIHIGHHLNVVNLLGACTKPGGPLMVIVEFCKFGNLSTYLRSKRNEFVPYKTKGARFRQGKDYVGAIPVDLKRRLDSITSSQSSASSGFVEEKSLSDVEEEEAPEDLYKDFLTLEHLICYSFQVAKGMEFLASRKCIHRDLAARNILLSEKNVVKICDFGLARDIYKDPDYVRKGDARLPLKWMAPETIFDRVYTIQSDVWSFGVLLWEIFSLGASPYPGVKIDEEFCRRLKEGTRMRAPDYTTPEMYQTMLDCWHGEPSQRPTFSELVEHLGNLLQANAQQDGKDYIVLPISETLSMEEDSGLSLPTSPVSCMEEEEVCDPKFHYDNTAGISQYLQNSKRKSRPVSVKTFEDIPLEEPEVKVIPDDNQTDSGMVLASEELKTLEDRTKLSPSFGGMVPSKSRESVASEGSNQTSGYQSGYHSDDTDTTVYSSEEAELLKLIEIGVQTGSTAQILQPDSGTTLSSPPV
T2 sequence (P08069 960-1367 limits assumed): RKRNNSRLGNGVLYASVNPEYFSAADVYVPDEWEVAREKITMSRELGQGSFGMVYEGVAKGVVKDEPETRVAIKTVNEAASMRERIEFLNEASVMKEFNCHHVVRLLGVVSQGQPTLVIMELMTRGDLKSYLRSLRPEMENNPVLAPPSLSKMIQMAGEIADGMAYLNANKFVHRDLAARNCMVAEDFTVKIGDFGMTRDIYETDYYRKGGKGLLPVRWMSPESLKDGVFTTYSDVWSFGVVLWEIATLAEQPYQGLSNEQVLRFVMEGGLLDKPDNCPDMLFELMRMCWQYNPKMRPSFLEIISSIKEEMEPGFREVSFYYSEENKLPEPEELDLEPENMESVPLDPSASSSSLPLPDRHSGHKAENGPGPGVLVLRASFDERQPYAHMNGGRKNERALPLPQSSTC

Row | Structure (SMILES) | inhibition at 10 µM (Aurora2 kinase) [%] | inhibition at 10 µM [1] [%] | inhibition at 10 µM (human KDR enzyme) [%] | Aurora2 % inhib at 10 μM (Aurora2 kinase) [%]
1 | Nc1n[nH]c2ccc(NS(=O)(=O)c3c(F)cccc3F)cc12 [Example 40, N-(3-Amino-1H-indazol-5-yl)-2,6-difluorobenzenesulfonamide] | 70 | 12 | 22 | 
2 | Nc1n[nH]c2ccc(NS(=O)(=O)c3c(Cl)cccc3Cl)cc12 [Example 41, N-(3-Amino-1H-indazol-5-yl)-2,6-dichlorobenzenesulfonamide] | 90 | 18 | 36 | 
3 | Nc1n[nH]c2ccc(NS(=O)(=O)c3cc(F)cc(F)c3)cc12 [Example 42, N-(3-Amino-1H-indazol-5-yl)-3,5-difluorobenzenesulfonamide] | 50 | 0 | 25 | 
4 | CS(=O)(=O)c1ccccc1S(=O)(=O)Nc1ccc2[nH]nc(-c3ccoc3)c2c1 [Example 52, N-(3-Furan-3-yl-1H-indazol-5-yl)-2-methylsulfonylbenzenesulfonamide] | 84 | 80 | 49 | 
5 | CS(=O)(=O)c1ccccc1S(=O)(=O)Nc1ccc2[nH]nc(-c3ccco3)c2c1 [Example 53, N-(3-Furan-2-yl-1H-indazol-5-yl)-2-methylsulfonylbenzenesulfonamide] | 91 | 76 | 42 | 
6 | CS(=O)(=O)c1ccccc1S(=O)(=O)Nc1ccc2[nH]nc(-c3ccncc3)c2c1 [Example 54, 2-Methylsulfonyl-N-(3-pyridin-4-yl-1H-indazol-5-yl)benzenesulfonamide] | 100 | 87 | 76 | 
7 | COC(=O)c1cccc(-c2n[nH]c3ccc(NS(=O)(=O)c4ccccc4S(C)(=O)=O)cc23)c1 [Example 55, Methyl 3-[5-(2-methylsulfonylbenzenesulfonamino)-1H-indazol-3-yl]benzoate] | 94 | 64 | 51 | 
8 | CS(=O)(=O)c1ccccc1S(=O)(=O)Nc1ccc2[nH]nc(-c3ccc[nH]3)c2c1 [Example 60, 2-Methylsulfonyl-N-[3-(1H-pyrrol-2-yl)-1H-indazol-5-yl]benzenesulfonamide] | 100 | 99 | 64 | 
9 | CS(=O)(=O)c1ccccc1S(=O)(=O)Nc1ccc2[nH]nc(-c3cc4ccccc4[nH]3)c2c1 [Example 61, N-[3-(1H-Indol-2-yl)-1H-indazol-5-yl]-2-methylsulfonylbenzenesulfonamide] | 100 | 99 | 98 | 
10 | CS(=O)(=O)c1ccccc1S(=O)(=O)Nc1ccc2[nH]nc(-c3cccc(N)c3)c2c1 [Example 62, N-[3-(3-Aminophenyl)-1H-indazol-5-yl]-2-methylsulfonylbenzenesulfonamide] | 100 | 88 | 74 | 
11 | CN(C)c1ccc(-c2n[nH]c3ccc(NS(=O)(=O)c4ccccc4S(C)(=O)=O)cc23)cc1 [Example 63, N-[3-(4-Dimethylaminophenyl)-1H-indazol-5-yl]-2-methylsulfonylbenzenesulfonamide] | 100 | 81 | 0 | 
12 | CS(=O)(=O)c1ccccc1S(=O)(=O)Nc1ccc2[nH]nc(-c3cc4ccccc4s3)c2c1 [Example 65, N-(3-Benzo[b]thiophen-2-yl-1H-indazol-5-yl)-2-methylsulfonylbenzenesulfonamide] | 100 | 63 | 73 | 
13 | CS(=O)(=O)c1ccccc1S(=O)(=O)Nc1ccc2[nH]nc(-c3ccc(N)cc3)c2c1 [Example 70, N-[3-(4-Aminophenyl)-1H-indazol-5-yl]-2-methylsulfonylbenzenesulfonamide] | 98 | 85 | 71 | 
14 | CS(=O)(=O)c1ccccc1S(=O)(=O)Nc1ccc2[nH]nc(-c3cccc(C#N)c3)c2c1 [Example 71, N-[3-(3-Cyanophenyl)-1H-indazol-5-yl]-2-methylsulfonylbenzenesulfonamide] | 93 | 90 | 83 | 
15 | CS(=O)(=O)c1ccccc1S(=O)(=O)Nc1ccc2[nH]nc(/C=C/c3ccc(F)cc3)c2c1 [Example 74, N-{3-[(E)-2-(4-Fluorophenyl)vinyl]-1H-indazol-5-yl}-2-methylsulfonylbenzenesulfonamide] | 99 | 95 | 95 | 
16 | CS(=O)(=O)c1ccccc1S(=O)(=O)Nc1ccc2[nH]nc(/C=C/c3ccc(Cl)cc3)c2c1 [Example 76, N-{3-[(E)-2-(4-Chlorophenyl)vinyl]-1H-indazol-5-yl}-2-methylsulfonylbenzenesulfonamide] | 99 | 96 | 92 | 
17 | COC(=O)/C=C/c1n[nH]c2ccc(NS(=O)(=O)c3ccccc3S(C)(=O)=O)cc12 [Example 79, Methyl (E)-3-[5(2-methylsulfonylbenzenesulfonylamino)-1H-indazol-3-yl]-acrylate] | 95 | 37 | 50 | 
18 | CS(=O)(=O)c1ccccc1S(=O)(=O)Nc1ccc2[nH]nc(-c3nc4ccccc4[nH]3)c2c1 [Example 81, N-[3-(1H-Benzimidazol-2-yl)-1H-indazol-5-yl]-2-methylsulfonylbenzenesulfonamide] | 100 | 99 | 93 | 
19 | O=S(=O)(Nc1ccc2[nH]nc(-c3cc4ccccc4[nH]3)c2c1)c1ccccc1OC(F)(F)F [Example 84, N-[3-(1H-Indol-2-yl)-1H-indazol-5-yl]-2-trifluoromethoxybenzenesulfonamide] | 100 | 94 | 98 | 
20 | CS(=O)(=O)c1ccccc1S(=O)(=O)Nc1ccc2[nH]nc(Sc3ccccc3)c2c1 [Example 88, 2-Methylsulfonyl-N-(3-phenylsulfanyl-1H-indazol-5-yl)-benzenesulfonamide] | 55 | 82 | 25 | 
21 | CS(=O)(=O)c1ccccc1S(=O)(=O)Nc1ccc2[nH]nc(C#Cc3ccccc3)c2c1 [Example 89, 2-Methylsulfonyl-N-(3-phenylethynyl-1H-indazol-5-yl)-benzenesulfonamide] | 92 | 90 | 85 | 
22 | Cc1cc2[nH]nc(-c3ccccc3)c2cc1NS(=O)(=O)c1ccccc1S(C)(=O)=O [Example 92, 2-Methylsulfonyl-N-(6-methyl-3-phenyl-1H-indazol-5-yl)-benzenesulfonamide] | 70 | 62 | 66 | 
23 | CS(=O)(=O)c1ccc(F)cc1S(=O)(=O)Nc1ccc2[nH]nc(-c3ccccc3)c2c1 [Example 93, 5-Fluoro-2-methylsulfonyl-N-(3-phenyl-1H-indazol-5-yl)-benzenesulfonamide] | 89 | 87 | 83 | 
24 | Nc1ccc(S(=O)(=O)Nc2ccc3[nH]nc(-c4ccccc4)c3c2)cc1 [Example 94, 4-Amino-N-(3-phenyl-1H-indazol-5-yl)benzenesulfonamide] | 65 | 70 | 88 | 
25 | CC(=O)Nc1ccc(S(=O)(=O)Nc2ccc3[nH]nc(-c4ccccc4)c3c2)cc1 [Example 95, N-[4-(3-Phenyl-1H-indazol-5-ylsulfamoyl)phenyl]acetamide] |  | 73 | 34 | 30
26 | O=S(=O)(Nc1ccc2[nH]nc(-c3ccccc3)c2c1)C1CCNCC1 [Example 100, N-(3-Phenyl-1H-indazol-5-yl)-piperidine-4-sulfonamide] | 44 | 13 | 74 | 
27 | O=S(=O)(Nc1ccc2[nH]nc(-c3ccccc3)c2c1)c1ccccc1C(F)(F)F [Example 109, N-(3-Phenyl-1H-indazol-5-yl)-2-trifluoromethylbenzene-sulfonamide] | 100 | 81 | 91 | 
